# Results taken from ChEMBL document CHEMBL3745704, “Novel nonsecosteroidal VDR ligands with phenyl-pyrrolyl pentane skeleton for cancer therapy” (Eur J Med Chem, 2016).
# Columns and labels:
# Vitamin D3 receptor = biological target: T1, Vitamin D3 receptor (Homo sapiens, UniProt P11473); assay: Binding affinity to vitamin D3 receptor (unknown origin) after 4 hrs using fluormone VDR red by polar screen VDR competitor assay
# T1 sequence (P11473 whole entry): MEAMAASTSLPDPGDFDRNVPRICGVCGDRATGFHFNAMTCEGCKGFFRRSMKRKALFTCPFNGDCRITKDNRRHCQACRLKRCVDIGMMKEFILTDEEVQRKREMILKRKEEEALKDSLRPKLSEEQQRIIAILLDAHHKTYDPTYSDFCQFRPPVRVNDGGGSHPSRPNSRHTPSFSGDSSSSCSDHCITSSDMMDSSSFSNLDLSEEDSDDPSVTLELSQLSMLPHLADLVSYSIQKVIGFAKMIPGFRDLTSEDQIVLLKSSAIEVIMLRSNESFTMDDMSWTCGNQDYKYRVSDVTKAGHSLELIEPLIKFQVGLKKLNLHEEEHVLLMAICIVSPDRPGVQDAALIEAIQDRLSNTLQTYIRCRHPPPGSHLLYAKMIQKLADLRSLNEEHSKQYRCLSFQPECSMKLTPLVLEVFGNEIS
# [1] = Antipoliferative activity against human PC3 cells after 48 hrs by MTT assay; format: functional, cell-based; settings: PC-3, 48 h
# MCF7 = assay: Antipoliferative activity against human MCF7 cells after 48 hrs by MTT assay; format: functional, cell-based; settings: MCF7, 48 h
# [2] = Antipoliferative activity against human Caco2 cells after 48 hrs by MTT assay; format: functional, cell-based; settings: Caco-2, 48 h
# HepG2 = assay: Antipoliferative activity against human HepG2 cells after 48 hrs by MTT assay; format: functional, cell-based; settings: HepG2, 48 h
# [3] = Cytotoxicity against human L02 cells after 48 hrs by MTT assay; format: cell-based; settings: L02, 48 h
# Rattus norvegicus [4] = assay: Toxicity in rat assessed as serum calcium level at 0.5 ug/kg/day administered for 7 days (reference value: 7.25 mg/dl); format: organism-based; settings: in vivo, 0.0005 mg/kg, 168 h
# Rattus norvegicus [5] = assay: Toxicity in rat assessed as hypercalcemic activity at 30 mg/kg/day administered for 7 days; format: organism-based; settings: in vivo, 168 h
# Rattus norvegicus [6] = assay: Toxicity in rat assessed as hypercalcemic activity at 10 mg/kg/day administered for 7 days; format: organism-based; settings: in vivo, 168 h
# Rattus norvegicus [7] = assay: Toxicity in rat assessed as hypercalcemic activity at 0.5 mg/kg/day administered for 7 days; format: organism-based; settings: in vivo, 168 h
Structure (SMILES),IC50 (Vitamin D3 receptor) [µM],IC50 (MCF7) [µM],IC50 (HepG2) [µM],IC50 [1] [µM],IC50 [2] [µM],IC50 [3] [µM],Activity (Rattus norvegicus [4]) [mg/dL],Activity (Rattus norvegicus [5]),Activity (Rattus norvegicus [6]),Activity (Rattus norvegicus [7])
CCn1c(C(=O)NCCN)ccc1C(CC)(CC)c1ccc(OCC(=O)C(C)(C)C)c(C)c1,1.01,0.075,0.18,0.48,1.9,2.5,,,,
CCN(CC)CCNC(=O)c1ccc(C(CC)(CC)c2ccc(OCC(O)C(C)(C)C)c(C)c2)n1CC (configuration not stated),,0.69,0.49,0.22,2.31,2.5,,,,
C=C1/C(=C\C=C2/CCC[C@]3(C)[C@@H]([C@H](C)CCCC(C)(C)O)CC[C@@H]23)C[C@@H](O)C[C@@H]1O [CALCITRIOL],,,,,,,13.11,,,
CCC(CC)(c1ccc(OCC(=O)C(C)(C)C)c(C)c1)c1ccc(OCC(=O)C(C)(C)C)c(C)c1,,7.8,> 50,> 50,16.9,5.1,,Non-toxic,,
CCN(CC)CCCNC(=O)c1ccc(C(CC)(CC)c2ccc(OCC(=O)C(C)(C)C)c(C)c2)n1CC,0.863,0.53,0.18,1.8,1,2.3,,,,
CC[C@@H](C)[C@H](NC(=O)c1ccc(C(CC)(CC)c2ccc(OCC(O)C(C)(C)C)c(C)c2)n1CC)C(=O)O (some centres not stated),0.389,2,0.127,1.9,3.4,1.4,,,,
CCN(CC)CCCNC(=O)c1ccc(C(CC)(CC)c2ccc(OCC(O)C(C)(C)C)c(C)c2)n1CC (configuration not stated),0.0711,0.19,1.1,2.5,1.8,2.5,,,,
CCn1c(C(=O)NCCCN2CCOCC2)ccc1C(CC)(CC)c1ccc(OCC(O)C(C)(C)C)c(C)c1 (configuration not stated),1.19,2.07,1.29,0.0079,5.9,0.81,,Non-toxic,Non-toxic,Non-toxic
CCn1c(C(=O)NCCN(C)C)ccc1C(CC)(CC)c1ccc(OCC(=O)C(C)(C)C)c(C)c1,,0.52,2.3,2.3,1.6,2.5,,,,
CC[C@@H](C)[C@H](NC(=O)c1ccc(C(CC)(CC)c2ccc(OCC(=O)C(C)(C)C)c(C)c2)n1CC)C(=O)O,0.564,0.16,0.247,1.6,4.5,1.5,,,,
C#CC(C)OC(=O)c1ccc(C(CC)(CC)c2ccc(OCC(O)C(C)(C)C)c(C)c2)n1CC (configuration not stated),,> 50,> 50,38.2,> 50,23.7,,,,
CCN(CC)CCNC(=O)c1ccc(C(CC)(CC)c2ccc(OCC(=O)C(C)(C)C)c(C)c2)n1CC,,0.69,0.62,0.03,1.6,2.5,,,,
CCn1c(C(=O)N(C)CC(=O)O)ccc1C(CC)(CC)c1ccc(OCC(=O)C(C)(C)C)c(C)c1,,28.6,25.2,18.4,35.9,8.7,,,,
CCn1c(C(=O)NCCCN(C)C)ccc1C(CC)(CC)c1ccc(OCC(=O)C(C)(C)C)c(C)c1,,0.34,0.96,1.6,1.4,0.67,,,,
CCn1c(C(=O)NCC(OC)OC)ccc1C(CC)(CC)c1ccc(OCC(O)C(C)(C)C)c(C)c1 (configuration not stated),5.23,> 50,23.2,14.6,> 50,22.2,,,,
CCn1c(C(=O)OCc2ccc(F)cc2)ccc1C(CC)(CC)c1ccc(OCC(O)C(C)(C)C)c(C)c1 (configuration not stated),,> 50,> 50,> 50,> 50,14.9,,,,
CCn1c(C(=O)N[C@@H](C)CO)ccc1C(CC)(CC)c1ccc(OCC(O)C(C)(C)C)c(C)c1 (some centres not stated),,2.8,47.6,17.5,> 50,17.3,,Non-toxic,,
CCn1c(C(=O)NCCCN2CCOCC2)ccc1C(CC)(CC)c1ccc(OCC(=O)C(C)(C)C)c(C)c1,3.52,5.2,1.6,0.011,3.6,0.31,,,,
CCOc1ccc(NC(=O)c2ccc(C(CC)(CC)c3ccc(OCC(O)C(C)(C)C)c(C)c3)n2CC)cc1 (configuration not stated),9.25,,,,,,,,,
CCn1c(C(=O)Oc2ccc(CCO)cc2)ccc1C(CC)(CC)c1ccc(OCC(O)C(C)(C)C)c(C)c1 (configuration not stated),,> 50,> 50,6.3,> 50,22.7,,,,

# Now from value to molecule, other results behind:
IC50 (Vitamin D3 receptor) [µM],IC50 (MCF7) [µM],IC50 (HepG2) [µM],Structure (SMILES),IC50 [1] [µM],IC50 [2] [µM],IC50 [3] [µM],Activity (Rattus norvegicus [4]) [mg/dL],Activity (Rattus norvegicus [5]),Activity (Rattus norvegicus [6]),Activity (Rattus norvegicus [7])
> 10,> 50,> 50,C#CCNC(=O)c1ccc(C(CC)(CC)c2ccc(OCC(O)C(C)(C)C)c(C)c2)n1CC (configuration not stated),16.2,39.1,4.4,,,,
,> 50,> 50,CCn1c(C(=O)N(C)CCC#N)ccc1C(CC)(CC)c1ccc(OCC(O)C(C)(C)C)c(C)c1 (configuration not stated),1.7,> 50,14.9,,,,
,9.2,> 50,CCOC(=O)CN(C)C(=O)c1ccc(C(CC)(CC)c2ccc(OCC(O)C(C)(C)C)c(C)c2)n1CC (configuration not stated),25.5,12.2,10.1,,,,
> 10,0.48,42,CCn1c(C(=O)N(CCC#N)CCC#N)ccc1C(CC)(CC)c1ccc(OCC(O)C(C)(C)C)c(C)c1 (configuration not stated),7.8,7.1,1.7,,,,
,0.66,0.87,CCn1c(C(=O)NCCN(C)C)ccc1C(CC)(CC)c1ccc(OCC(O)C(C)(C)C)c(C)c1 (configuration not stated),1.63,1.3,2.6,,,,
,25.4,17.1,CCn1c(C(=O)N(C)CC(=O)O)ccc1C(CC)(CC)c1ccc(OCC(O)C(C)(C)C)c(C)c1 (configuration not stated),23.9,31.9,32.6,,,,
0.194,0.0059,0.176,CCn1c(C(=O)NCCN)ccc1C(CC)(CC)c1ccc(OCC(O)C(C)(C)C)c(C)c1 (configuration not stated),0.94,1,2.4,,Non-toxic,Non-toxic,Non-toxic
0.197,0.49,0.36,CCn1c(C(=O)NCCCN(C)C)ccc1C(CC)(CC)c1ccc(OCC(O)C(C)(C)C)c(C)c1 (configuration not stated),3.1,1.9,0.47,,,,
,> 50,> 50,C=CCN(C)C(=O)c1ccc(C(CC)(CC)c2ccc(OCC(O)C(C)(C)C)c(C)c2)n1CC (configuration not stated),25.9,> 50,6.3,,,,
